Measured values from patent US20030073618A1, “Compounds comprising disulfide-containing peptides and nitrogenous bases, and medical uses thereof” (priority 2001, published 2003).
Read-outs that look alike come from different tables or passages of the source.

Columns and labels:
[1] = tested on: ATP-ase/helicase (NS3 of hepatitis C virus)
[2] = tested on: ATP-ase/helicase; experiment: ATP-ase/helicase activity in lysate of donor lymphocyte nuclei
[3] = 100 μg/ml, 200 pg M13 phage DNA
[4] = 100 μg/ml, 500 pg M13 phage DNA
[5] = 100 μg/ml, 800 pg M13 phage DNA
[6] = compared with GSSG-I and GSSG-IMP
[7] = 100 μg/ml, 100 pg M13 phage DNA

Q: What does the source list for N[C@@H](CCC(=O)N[C@@H](CSSC[C@H](NC(=O)CC[C@H](NP(=O)(O)OC[C@H]1O[C@@H](n2ccc(=O)[nH]c2=O)[C@H](O)[C@@H]1O)C(=O)O)C(=O)NCC(=O)[O-])C(=O)NCC(=O)[O-])C(=O)O.[Na+].[Na+] [GSSG-UMP]?
A: Radioactive fraction, high-molecular ([1]; 10 μg/ml, 20 pg M13 phage DNA): 16 ± 1/; Radioactive fraction, low-molecular ([1]; 10 μg/ml, 20 pg M13 phage DNA): 84 ± 5; Radioactive fraction, high-molecular ([1]; 10 μg/ml, 50 pg M13 phage DNA): 17.5 ± 1.5/; Radioactive fraction, low-molecular ([1]; 10 μg/ml, 50 pg M13 phage DNA): 82.5 ± 8.5; Radioactive fraction, high-molecular ([1]; 10 μg/ml, 200 pg M13 phage DNA): 45 ± 4/; Radioactive fraction, low-molecular ([1]; 10 μg/ml, 200 pg M13 phage DNA): 55 ± 5; Radioactive fraction, high-molecular ([1]; 10 μg/ml, 500 pg M13 phage DNA): 73.5 ± 5.5/; Radioactive fraction, low-molecular ([1]; 10 μg/ml, 500 pg M13 phage DNA): 27.5 ± 1.5; Radioactive fraction, high-molecular ([1]; 10 μg/ml, 800 pg M13 phage DNA): 92.0 ± 5/; Radioactive fraction, low-molecular ([1]; 10 μg/ml, 800 pg M13 phage DNA): 8 ± 1; Radioactive fraction, high-molecular ([1]; 50 μg/ml, 20 pg M13 phage DNA): 32 ± 2.5*/; Radioactive fraction, low-molecular ([1]; 50 μg/ml, 20 pg M13 phage DNA): 78 ± 7; Radioactive fraction, high-molecular ([1]; 50 μg/ml, 50 pg M13 phage DNA): 34 ± 3*/; Radioactive fraction, low-molecular ([1]; 50 μg/ml, 50 pg M13 phage DNA): 66 ± 7; Radioactive fraction, high-molecular ([1]; 50 μg/ml, 200 pg M13 phage DNA): 51 ± 4/; Radioactive fraction, low-molecular ([1]; 50 μg/ml, 200 pg M13 phage DNA): 49 ± 5; Radioactive fraction, high-molecular ([1]; 50 μg/ml, 500 pg M13 phage DNA): 74 ± 5/; Radioactive fraction, low-molecular ([1]; 50 μg/ml, 500 pg M13 phage DNA): 26 ± 2; Radioactive fraction, high-molecular ([1]; 50 μg/ml, 800 pg M13 phage DNA): 92.5 ± 6.5/; Radioactive fraction, low-molecular ([1]; 50 μg/ml, 800 pg M13 phage DNA): 7.5 ± 1; Radioactive fraction, high-molecular ([1]; 100 μg/ml, 20 pg M13 phage DNA): 36 ± 2*/; Radioactive fraction, low-molecular ([1]; 100 μg/ml, 20 pg M13 phage DNA): 64 ± 5; Radioactive fraction, high-molecular ([1]; 100 μg/ml, 50 pg M13 phage DNA): 41 ± 4*/; Radioactive fraction, low-molecular ([1]; 100 μg/ml, 50 pg M13 phage DNA): 59 ± 6; Radioactive fraction, high-molecular [1, 3]: 57.5 ± 7.5*/; Radioactive fraction, low-molecular [1, 3]: 42.5 ± 3.5; Radioactive fraction, high-molecular [1, 4]: 75.5 ± 6.5/; Radioactive fraction, low-molecular [1, 4]: 24.5 ± 3.5; Radioactive fraction, high-molecular [1, 5]: 92.5 ± 6.5/; Radioactive fraction, low-molecular [1, 5]: 7.5 ± 1; Relative inhibition of ATP-ase/helicase activity [1, 6]: maximal inhibitory effect; Radioactive fraction, high-molecular ([2]; 10 μg/ml, 5 pg M13 phage DNA): 16 ± 1/; Radioactive fraction, low-molecular ([2]; 10 μg/ml, 5 pg M13 phage DNA): 84 ± 5; Radioactive fraction, high-molecular ([2]; 10 μg/ml, 20 pg M13 phage DNA): 20 ± 2/; Radioactive fraction, low-molecular ([2]; 10 μg/ml, 20 pg M13 phage DNA): 80 ± 5; Radioactive fraction, high-molecular ([2]; 10 μg/ml, 50 pg M13 phage DNA): 41 ± 32/; Radioactive fraction, low-molecular ([2]; 10 μg/ml, 50 pg M13 phage DNA): 59 ± 5; Radioactive fraction, high-molecular ([2]; 10 μg/ml, 100 pg M13 phage DNA): 72 ± 4.5/; Radioactive fraction, low-molecular ([2]; 10 μg/ml, 100 pg M13 phage DNA): 28 ± 2.5; Radioactive fraction, high-molecular ([2]; 10 μg/ml, 200 pg M13 phage DNA): 92 ± 7/; Radioactive fraction, low-molecular ([2]; 10 μg/ml, 200 pg M13 phage DNA): 8 ± 2; Radioactive fraction, high-molecular ([2]; 50 μg/ml, 5 pg M13 phage DNA): 32.5 ± 1.5*/; Radioactive fraction, low-molecular ([2]; 50 μg/ml, 5 pg M13 phage DNA): 67.5 ± 5.5; Radioactive fraction, high-molecular ([2]; 50 μg/ml, 20 pg M13 phage DNA): 37.5 ± 2.5*/; Radioactive fraction, low-molecular ([2]; 50 μg/ml, 20 pg M13 phage DNA): 62.5 ± 5.5; Radioactive fraction, high-molecular ([2]; 50 μg/ml, 50 pg M13 phage DNA): 59 ± 5*/; Radioactive fraction, low-molecular ([2]; 50 μg/ml, 50 pg M13 phage DNA): 41 ± 4; Radioactive fraction, high-molecular ([2]; 50 μg/ml, 100 pg M13 phage DNA): 80 ± 6/; Radioactive fraction, low-molecular ([2]; 50 μg/ml, 100 pg M13 phage DNA): 20 ± 3.5; Radioactive fraction, high-molecular ([2]; 50 μg/ml, 200 pg M13 phage DNA): 90.5 ± 6/; Radioactive fraction, low-molecular ([2]; 50 μg/ml, 200 pg M13 phage DNA): 9.5 ± 1.5; Radioactive fraction, high-molecular ([2]; 100 μg/ml, 5 pg M13 phage DNA): 42 ± 3*/; Radioactive fraction, low-molecular ([2]; 100 μg/ml, 5 pg M13 phage DNA): 58 ± 4; Radioactive fraction, high-molecular ([2]; 100 μg/ml, 20 pg M13 phage DNA): 49.5 ± 4*/; Radioactive fraction, low-molecular ([2]; 100 μg/ml, 20 pg M13 phage DNA): 50.5 ± 5; Radioactive fraction, high-molecular ([2]; 100 μg/ml, 50 pg M13 phage DNA): 67 ± 5*/; Radioactive fraction, low-molecular ([2]; 100 μg/ml, 50 pg M13 phage DNA): 33 ± 3.5; Radioactive fraction, high-molecular [2, 7]: 84 ± 6.5/; Radioactive fraction, low-molecular [2, 7]: 16 ± 1.5; Radioactive fraction, high-molecular [2, 3]: 92.5 ± 8/; Radioactive fraction, low-molecular [2, 3]: 7.5 ± 2; Relative inhibition of ATP-ase/helicase activity [2, 6]: inhibits ATP-ase/helicase activity most of all
